From PubChem BioAssay (NCI)
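Exposure lasted 48 hours, with cells grown in 96-well plates and compounds tested at five concentrations. Definition used: TGI = concentration required for complete inhibition of growth.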

What was measured:
Assay in all cases: NCI anticancer screen, dose series, 48 h
A498 renal = tested on: A498 renal
CCRF-CEM leukemia = tested on: CCRF-CEM leukemia
HCC-2998 colon = tested on: HCC-2998 colon
HS 578T breast = tested on: HS 578T breast
KM12 colon = tested on: KM12 colon
MALME-3M melanoma = tested on: MALME-3M melanoma
NCI/ADR-RES ovarian = tested on: NCI/ADR-RES ovarian
SK-MEL-5 melanoma = tested on: SK-MEL-5 melanoma
K-562 leukemia = tested on: K-562 leukemia
RXF 393 renal = tested on: RXF 393 renal
SF-539 CNS = tested on: SF-539 CNS
SK-MEL-2 melanoma = tested on: SK-MEL-2 melanoma
SN12C renal = tested on: SN12C renal

Measured: TGI

OCCOCCO[P+]1(OCCOCCO)n2c3ccc2C(c2ccccc2)=C2C=CC(=N2)C(c2ccccc2)=c2ccc(n21)=C(c1ccccc1)C1=NC(=C3c2ccccc2)C=C1
0.321 µM: HCC-2998 colon
> 100 µM: A498 renal
0.134 µM: SK-MEL-5 melanoma
1.14 µM: CCRF-CEM leukemia
0.379 µM: HS 578T breast
0.429 µM: KM12 colon
0.706 µM: MALME-3M melanoma
> 67.5 µM: NCI/ADR-RES ovarian

Cc1cccc(C)c1NC(=S)/N=C/C1=C(O)c2ccccc2C1=O
> 83.3 µM: SK-MEL-2 melanoma
29.3 µM: SK-MEL-5 melanoma
> 59.9 µM: SF-539 CNS
not listed: A498 renal | MALME-3M melanoma
> 100 µM: all other assays above

Cc1sc(N=Nc2c(O)[nH]c3ccccc23)nc1-c1ccccc1
51.1 µM: HCC-2998 colon
43.7 µM: KM12 colon
32.3 µM: A498 renal
34.9 µM: RXF 393 renal | SN12C renal
37.5 µM: SF-539 CNS
49.5 µM: SK-MEL-2 melanoma
44.7 µM: NCI/ADR-RES ovarian
33.9 µM: SK-MEL-5 melanoma

CNC(Cc1ccccc1)c1cccc(OC)c1O (configuration not stated)
not listed: CCRF-CEM leukemia | HCC-2998 colon | SF-539 CNS
> 100 µM: all other assays above

CC(C)CCNC(=O)c1ccc(CNC(=O)/C=C/c2ccc(-c3ccccc3[N+](=O)[O-])o2)cc1
not listed: A498 renal | HS 578T breast | MALME-3M melanoma | SF-539 CNS
> 100 µM: all other assays above

Cc1ccc2c(c1)NC(=O)C(N=[N+]=[N-])(c1ccccc1)C2=O (configuration not stated)
36.2 µM: SK-MEL-2 melanoma
> 100 µM: A498 renal | CCRF-CEM leukemia | HCC-2998 colon
71.6 µM: MALME-3M melanoma
40 µM: KM12 colon
56.6 µM: K-562 leukemia
81.5 µM: SF-539 CNS
48.2 µM: SN12C renal
47.4 µM: SK-MEL-5 melanoma

Cc1ccc(S(=O)(=O)C2=c3ncccc3=C3C(=O)c4ccccc4C(=O)C32)cc1 (configuration not stated)
> 76.6 µM: KM12 colon
> 31.6 µM: RXF 393 renal
> 15 µM: SK-MEL-5 melanoma
81.8 µM: HS 578T breast
46.1 µM: SF-539 CNS
not listed: A498 renal
> 100 µM: all other assays above

CCNC1CC(C(C)(C)NCC)CC=C1C (configuration not stated)
not listed: A498 renal | HS 578T breast | MALME-3M melanoma | RXF 393 renal | SK-MEL-2 melanoma
> 100 µM: all other assays above

c1ccc(C2CC(N3CCOCC3)=Nc3ccccc3N2)cc1 (configuration not stated)
not listed: HCC-2998 colon
> 100 µM: all other assays above

C(/COc1cccnc1)=N\NC1=NCCN1
not listed: HS 578T breast | NCI/ADR-RES ovarian
> 100 µM: all other assays above

Nc1nc(=O)n(C2OC(CO)C(O)C2O)cc1F (configuration not stated)
> 43.8 µM: CCRF-CEM leukemia
not listed: HS 578T breast | MALME-3M melanoma
> 100 µM: all other assays above

CC[n+]1[b-](C(C)(C)C)n(/N=C(\C)C(C)(C)C)[b-](C(C)(C)C)[n+]1CC
not listed: A498 renal
> 100 µM: all other assays above

O=[N+]([O-])C(=C1Nc2ccccc2N1)C(Cl)=C(Cl)Cl
76 µM: CCRF-CEM leukemia
not listed: NCI/ADR-RES ovarian
> 100 µM: all other assays above

Cc1ccc(S(=O)(=O)n2ccn3c(=O)cc(C)nc23)cc1
not listed: HCC-2998 colon
> 10 µM: all other assays above

CCCCCCCCCCCCCCCCCCNc1ccn(C2OC(CO)C(OP(=O)(O)OCC3CCC(n4ccc(N)nc4=O)O3)C2O)c(=O)n1 (configuration not stated)
58.1 µM: CCRF-CEM leukemia
45.1 µM: RXF 393 renal
94.8 µM: MALME-3M melanoma
not listed: A498 renal | HCC-2998 colon | K-562 leukemia
> 100 µM: all other assays above
